Data as given in patent US5668161A, “Substituted thiazoles for the treatment of inflammation” (G.D. Searle & Co., priority 1996, dated 1997).
pIC50: −log10 of the molar value. Where two headings read alike, the source gives them in different places.

Key:
human COX-II = molecular target: T1, human COX-II (Homo sapiens, UniProt P35354); assay: COX II activity in vitro, human (PGE2 by ELISA)
T1 sequence (P35354 18-604): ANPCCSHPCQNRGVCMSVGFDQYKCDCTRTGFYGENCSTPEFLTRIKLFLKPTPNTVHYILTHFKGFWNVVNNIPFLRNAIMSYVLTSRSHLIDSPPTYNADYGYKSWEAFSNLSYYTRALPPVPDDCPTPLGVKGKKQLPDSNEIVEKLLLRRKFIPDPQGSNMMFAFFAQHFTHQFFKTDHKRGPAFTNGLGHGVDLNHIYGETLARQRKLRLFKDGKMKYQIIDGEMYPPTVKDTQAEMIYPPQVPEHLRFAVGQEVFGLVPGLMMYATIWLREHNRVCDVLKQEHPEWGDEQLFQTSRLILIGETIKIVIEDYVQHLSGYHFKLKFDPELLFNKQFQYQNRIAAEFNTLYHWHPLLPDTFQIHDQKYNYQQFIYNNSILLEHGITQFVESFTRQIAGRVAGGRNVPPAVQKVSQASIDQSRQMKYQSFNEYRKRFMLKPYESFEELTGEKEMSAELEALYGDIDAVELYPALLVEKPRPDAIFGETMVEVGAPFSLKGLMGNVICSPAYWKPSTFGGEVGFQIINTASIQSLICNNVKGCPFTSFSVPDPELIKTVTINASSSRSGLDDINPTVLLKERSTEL

murine COX-I = molecular target: T2, murine COX-I (Mus musculus, UniProt P22437); assay: COX I activity in vitro, murine (PGE2 by ELISA)
T2 sequence (P22437 27-602): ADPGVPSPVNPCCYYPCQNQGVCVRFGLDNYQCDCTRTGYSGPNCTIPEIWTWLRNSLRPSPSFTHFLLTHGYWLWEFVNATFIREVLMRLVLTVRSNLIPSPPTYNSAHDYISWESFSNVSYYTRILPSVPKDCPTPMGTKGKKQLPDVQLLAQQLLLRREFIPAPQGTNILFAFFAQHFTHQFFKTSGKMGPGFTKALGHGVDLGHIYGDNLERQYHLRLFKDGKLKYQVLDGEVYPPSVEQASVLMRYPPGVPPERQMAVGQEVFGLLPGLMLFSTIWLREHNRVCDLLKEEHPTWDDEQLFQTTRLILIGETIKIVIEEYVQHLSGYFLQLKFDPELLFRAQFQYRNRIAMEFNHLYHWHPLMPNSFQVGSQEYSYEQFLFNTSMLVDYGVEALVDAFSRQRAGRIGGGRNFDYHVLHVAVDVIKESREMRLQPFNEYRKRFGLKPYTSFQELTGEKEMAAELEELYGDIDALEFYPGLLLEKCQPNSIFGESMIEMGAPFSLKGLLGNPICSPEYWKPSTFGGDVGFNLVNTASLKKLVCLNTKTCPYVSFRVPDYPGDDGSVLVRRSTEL

human COX-I = human COX-I (Homo sapiens, UniProt P23219); assay: COX I activity in vitro, human (PGE2 by ELISA)
murine COX-II = molecular target: T3, murine COX-II (Mus musculus, UniProt Q05769); assay: biochemical
T3 sequence (Q05769 18-604): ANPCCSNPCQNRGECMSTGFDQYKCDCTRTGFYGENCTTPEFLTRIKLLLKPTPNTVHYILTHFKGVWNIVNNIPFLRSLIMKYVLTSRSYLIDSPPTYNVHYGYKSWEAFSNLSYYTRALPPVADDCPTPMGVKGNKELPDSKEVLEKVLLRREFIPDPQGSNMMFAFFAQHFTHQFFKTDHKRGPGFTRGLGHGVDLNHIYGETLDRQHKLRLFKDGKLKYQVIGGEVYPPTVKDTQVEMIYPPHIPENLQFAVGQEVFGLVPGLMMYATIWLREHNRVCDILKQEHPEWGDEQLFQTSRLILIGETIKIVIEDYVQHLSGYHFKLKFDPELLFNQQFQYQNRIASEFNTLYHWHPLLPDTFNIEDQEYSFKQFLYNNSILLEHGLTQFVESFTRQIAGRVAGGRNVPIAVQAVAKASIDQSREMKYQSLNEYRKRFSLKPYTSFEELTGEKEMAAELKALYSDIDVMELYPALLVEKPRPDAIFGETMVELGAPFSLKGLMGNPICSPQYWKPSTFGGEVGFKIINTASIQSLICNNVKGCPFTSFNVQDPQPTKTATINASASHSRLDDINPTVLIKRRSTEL

carrageenan foot edema = assay: Rat Carrageenan Foot Pad Edema Test; format: in vivo, rat (Male Sprague-Dawley); conditions: oral, 3 hours after carrageenan, read-out: RAT PAW EDEMA % Inhibition; for inhibition at 20 mg/kg: @ 20 mg/kg body weight
Experimental: Male Sprague-Dawley rats were selected in each group so that the average body weight was as close as possible. Rats were fasted with free access to water for over sixteen hours prior to the test. […] One hour later a subplantar injection of 0.1 mL of 1% solution of carrageenan/sterile 0.9% saline was administered and the volume of the injected foot was measured with a displacement plethysmometer connected to a pressure transducer with a digital indicator. Three hours after the injection of the carrageenan, the volume of the foot was again measured. […] Rat Carrageenan-induced Analgesia Test

human COX-I, sequence (P23219 24-599): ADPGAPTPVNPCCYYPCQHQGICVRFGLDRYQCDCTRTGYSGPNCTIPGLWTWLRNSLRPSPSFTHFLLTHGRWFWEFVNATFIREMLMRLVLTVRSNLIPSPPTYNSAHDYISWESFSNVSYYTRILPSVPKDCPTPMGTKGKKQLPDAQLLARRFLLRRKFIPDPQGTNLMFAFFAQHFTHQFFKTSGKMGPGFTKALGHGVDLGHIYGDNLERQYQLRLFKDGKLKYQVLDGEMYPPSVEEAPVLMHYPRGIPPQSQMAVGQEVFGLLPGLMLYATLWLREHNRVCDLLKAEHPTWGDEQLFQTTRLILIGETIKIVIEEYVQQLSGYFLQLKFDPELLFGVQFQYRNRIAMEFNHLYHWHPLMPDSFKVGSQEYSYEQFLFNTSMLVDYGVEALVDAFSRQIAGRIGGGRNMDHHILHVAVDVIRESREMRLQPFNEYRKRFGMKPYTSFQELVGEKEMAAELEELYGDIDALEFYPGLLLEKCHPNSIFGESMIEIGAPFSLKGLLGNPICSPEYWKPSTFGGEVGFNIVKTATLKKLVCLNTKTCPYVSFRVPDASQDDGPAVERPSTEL

SMILES | pIC50 (human COX-II) | pIC50 (murine COX-I) | pIC50 (human COX-I) | pIC50 (murine COX-II) | pIC50 (human COX-I; read-out: COX I ID50, human (h), 10 μM arachidonic acid) | inhibition at 20 mg/kg (carrageenan foot edema) [%] | inhibition at 10 mg/kg (carrageenan foot edema) [%]
CS(=O)(=O)c1ccc(-c2sc(COc3ccc(Cl)cc3)nc2-c2ccc(F)cc2)cc1 [Example 1, 2-((4-Chlorophenoxy)methyl)-4-(4-fluorophenyl)-5-(4-methylsulfonylphenyl)thiazole] | > 7.00 | < 4.00 | < 5.00 | – | – | – | –
CS(=O)(=O)c1ccc(-c2sc(-c3ccccc3Cl)nc2-c2cccc(F)c2)cc1 [Example 3, 2-(2-Chlorophenyl)-4-(3-fluorophenyl)-5-(4-methylsulfonylphenyl)thiazole] | > 7.00 | – | – | – | – | – | –
Cc1ccccc1-c1nc(-c2ccccc2Cl)sc1-c1ccc(S(C)(=O)=O)cc1 [Example 5, 2-(2-Chlorophenyl)-4-(2-methylphenyl)-5-(4-methylsulfonylphenyl)thiazole] | > 7.00 | – | < 4.00 | – | – | – | –
CS(=O)(=O)c1ccc(-c2sc(-c3ccccc3Cl)nc2-c2ccccc2Cl)cc1 [Example 9, 2-(2-Chlorophenyl)-4-(2-chlorophenyl)-5-(4-methylsulfonylphenyl)thiazole] | > 7.00 | – | < 4.00 | – | – | – | –
CS(=O)(=O)c1ccc(-c2sc(-c3ccccc3Cl)nc2-c2ccc(Cl)cc2)cc1 [Example 10, 2-(2-Chlorophenyl)-4-(4-chlorophenyl)-5-(4-methylsulfonylphenyl)thiazole] | > 7.00 | – | < 4.00 | – | – | 14 | –
COc1ccc(-c2nc(-c3ccccc3Cl)sc2-c2ccc(S(C)(=O)=O)cc2)cc1 [Example 11, 2-(2-Chlorophenyl)-4-(4-methoxyphenyl)-5-(4-methylsulfonylphenyl)thiazole] | > 7.00 | – | < 4.00 | – | – | – | –
CS(=O)(=O)c1ccc(-c2sc(-c3ccc(F)c(Cl)c3)nc2-c2ccc(F)cc2)cc1 [Example 12, 2-(3-Chloro-4-fluorophenyl)-4-(4-fluorophenyl)-5-(4-methylsulfonylphenyl)thiazole] | > 7.00 | 5.80 | < 5.00 | > 7.00 | – | 53 | –
CS(=O)(=O)c1ccc(-c2sc(C(Br)S(=O)(=O)c3cccs3)nc2-c2ccc(F)cc2)cc1 (stereo not shown) [Example 14] | 6.22 | 4.40 | < 4.00 | 6.30 | – | – | –
CS(=O)(=O)c1ccc(-c2sc(CCCc3ccc(Br)cc3)nc2-c2ccc(F)cc2)cc1 [Example 21] | > 7.00 | < 5.00 | – | > 7.00 | – | – | –
CS(=O)(=O)c1ccc(-c2sc(C(F)(F)F)nc2-c2ccc(F)cc2)cc1 [Example 23, 4-(4-Fluorophenyl)-5-(4-methylsulfonylphenyl)-2-trifluoromethylthiazole] | > 7.00 | 6.15 | 5.96 | > 7.00 | – | 39.5 | –
NS(=O)(=O)c1ccc(-c2sc(-c3ccccc3Cl)nc2-c2ccc(F)cc2)cc1 [Example 32, 4-[4-(4-Fluorophenyl)-2-(2-chlorophenyl)-5-thiazolyl]benzensulfonamide] | > 7.00 | – | 6.15 | – | – | – | –
NS(=O)(=O)c1ccc(-c2sc(COc3cc(Cl)cc(Cl)c3)nc2-c2ccc(F)cc2)cc1 [Example 34, 4-[2-((3,5-Dichlorophenoxy)methyl)-4-(4-fluorophenyl)-5-thiazolyl]benezenesulfonamide] | – | – | > 7.00 | – | – | – | –
CS(=O)(=O)c1ccc(-c2sc(COc3cccc(Cl)c3)nc2-c2ccccc2F)cc1 [Example 36, 2-(3-Chlorophenoxy)methyl-4-(2-fluorophenyl)-5-[4-(methylsulfonyl)phenyl]thiazole] | > 7.00 | – | < 4.00 | – | – | – | –
COc1ccc(OCc2nc(-c3ccc(F)cc3)c(-c3ccc(S(C)(=O)=O)cc3)s2)cc1 [Example 41, 4-(4-Fluorophenyl)-2-[(4-methoxyphenoxy)methyl]-5-[4-(methylsulfonyl)phenyl]thiazole] | > 7.00 | – | < 4.00 | – | – | 4 | –
CS(=O)(=O)c1ccc(-c2sc(Nc3cc(Cl)cc(Cl)c3)nc2-c2ccc(F)cc2)cc1 [Example 52, 2-(3,5-Dichlorophenylamino)-4-(4-fluorophenyl)-5-(4-methylsulfonylphenyl)thiazole] | – | < 4.00 | – | 6.30 | – | – | 7
CS(=O)(=O)c1ccc(-c2nc(C(F)(F)F)sc2-c2ccc(F)cc2)cc1 [Example 56, 5-(4-fluorophenyl)-4-(4-methylsulfonylphenyl)-2-trifluoromethylthiazole] | > 7.00 | < 4.00 | < 4.00 | > 7.00 | – | – | 20

Now from value to molecule, other results behind:

pIC50 (human COX-II) | pIC50 (murine COX-I) | pIC50 (human COX-I) | pIC50 (murine COX-II) | pIC50 (human COX-I; read-out: COX I ID50, human (h), 10 μM arachidonic acid) | SMILES | inhibition at 20 mg/kg (carrageenan foot edema) [%] | inhibition at 10 mg/kg (carrageenan foot edema) [%]
> 7.00 | – | – | – | – | CS(=O)(=O)c1ccc(-c2sc(-c3ccccc3Cl)nc2-c2ccccc2)cc1 [Example 2, 2-(2-Chlorophenyl)-4-phenyl-5-(4-methylsulfonylphenyl)thiazole] | – | –
> 7.00 | 5.21 | – | > 7.00 | 4.15 | CS(=O)(=O)c1ccc(-c2sc(-c3ccccc3Cl)nc2-c2ccc(F)cc2F)cc1 [Example 4, 4-(2,4-Difluorophenyl)-2-(2-chlorophenyl)-5-(4-methylsulfonylphenyl)thiazole] | – | –
6.70 | – | < 4.00 | – | – | Cc1ccc(-c2nc(-c3ccccc3Cl)sc2-c2ccc(S(C)(=O)=O)cc2)cc1 [Example 15, 2-(2-Chlorophenyl)-5-(4-methylsulfonylphenyl)-4-(4-methylphenyl)thiazole] | – | –
> 7.00 | – | 5.59 | – | – | CS(=O)(=O)c1ccc(-c2sc(-c3ccc(Br)s3)nc2-c2ccc(F)cc2)cc1 [Example 25, 2-(5'-Bromo-2'-thienyl)-4-(4-fluorophenyl)-5-(4-methylsulfonylphenyl)thiazole] | – | –
> 7.00 | – | < 4.00 | – | – | CS(=O)(=O)c1ccc(-c2sc(COc3ccccc3Cl)nc2-c2ccc(F)cc2)cc1 [Example 38, 2-((2-Chlorophenoxy)methyl)-4-(4-fluorophenyl)-5-(4-methylsulfonylphenyl)thiazole] | – | –
> 7.00 | – | < 4.00 | – | – | CS(=O)(=O)c1ccc(-c2sc(-c3ccccc3Cl)nc2-c2ccc(Br)cc2)cc1 [Example 40, 4-(4-Bromophenyl)-2-(2-chlorophenyl)-5-[4-(methylsulfonyl)phenyl]thiazole] | – | –
> 7.00 | 5.31 | < 4.00 | < 7.00 | – | CS(=O)(=O)c1ccc(-c2sc(-c3c(F)c(F)c(F)c(F)c3F)nc2-c2ccc(F)cc2)cc1 [Example 57] | – | 2
